Drawing on US12473296B2, “Perk inhibiting compounds” (HiberCell, Inc., priority 2019, dated 2025), this text covers IC50 for 27 compounds.

Test [1] has as its target EIF2AK3 (PERK) catalytic domain (amino acids 536-1116) (Homo sapiens (Human), UniProt Q9NZJ5). Put plainly: PERK in vitro activity assay (isolated), TR-FRET kinase assay. Conditions: isolated PERK enzyme, 1.5 μM ATP, GFP-eIF2a substrate; read-out: Biochemical IC50. The procedure, abridged: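 Human PERK catalytic domain (aa 536-1116) with 100-200 nM GFP-eIF2a in 50 mM HEPES pH 7.5, 10 mM MgCl2, 1.0 mM EGTA, 0.01% Brij-35; enzyme-started reaction run 45 min at room temperature. Stopped with 10 mM EDTA, 2 nM Tb-anti-phospho-eIF2a added for 90 min; IC50 from TR-FRET ratio by 4-parameter logistic fit.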
For orientation: In TR-FRET formats the signal depends on donor and acceptor labels being close together.

Another test has as its target PERK (Homo sapiens (Human), UniProt Q9NZJ5). Briefly: PERK cellular assay (TR-FRET, HEK293-EGFP-eIF2α cells, tunicamycin-induced ER stress). The format is cell-based. Conditions: tunicamycin 2 hours, read-out: Cellular IC50 (μM) (EIF2a). The procedure, abridged: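 After 2 h tunicamycin ([…]) stress following 30 min compound pretreatment at 37 °C, lysed HEK293-EGFP-eIF2α cells were read by TR-FRET. IC50 derived by 4-parameter logistic fitting of percent inhibition, DMSO-normalized, from 10-point 3-fold dilutions.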

SMILES strings stand for the structures.

Chain of PERK (Q9NZJ5 30-1116): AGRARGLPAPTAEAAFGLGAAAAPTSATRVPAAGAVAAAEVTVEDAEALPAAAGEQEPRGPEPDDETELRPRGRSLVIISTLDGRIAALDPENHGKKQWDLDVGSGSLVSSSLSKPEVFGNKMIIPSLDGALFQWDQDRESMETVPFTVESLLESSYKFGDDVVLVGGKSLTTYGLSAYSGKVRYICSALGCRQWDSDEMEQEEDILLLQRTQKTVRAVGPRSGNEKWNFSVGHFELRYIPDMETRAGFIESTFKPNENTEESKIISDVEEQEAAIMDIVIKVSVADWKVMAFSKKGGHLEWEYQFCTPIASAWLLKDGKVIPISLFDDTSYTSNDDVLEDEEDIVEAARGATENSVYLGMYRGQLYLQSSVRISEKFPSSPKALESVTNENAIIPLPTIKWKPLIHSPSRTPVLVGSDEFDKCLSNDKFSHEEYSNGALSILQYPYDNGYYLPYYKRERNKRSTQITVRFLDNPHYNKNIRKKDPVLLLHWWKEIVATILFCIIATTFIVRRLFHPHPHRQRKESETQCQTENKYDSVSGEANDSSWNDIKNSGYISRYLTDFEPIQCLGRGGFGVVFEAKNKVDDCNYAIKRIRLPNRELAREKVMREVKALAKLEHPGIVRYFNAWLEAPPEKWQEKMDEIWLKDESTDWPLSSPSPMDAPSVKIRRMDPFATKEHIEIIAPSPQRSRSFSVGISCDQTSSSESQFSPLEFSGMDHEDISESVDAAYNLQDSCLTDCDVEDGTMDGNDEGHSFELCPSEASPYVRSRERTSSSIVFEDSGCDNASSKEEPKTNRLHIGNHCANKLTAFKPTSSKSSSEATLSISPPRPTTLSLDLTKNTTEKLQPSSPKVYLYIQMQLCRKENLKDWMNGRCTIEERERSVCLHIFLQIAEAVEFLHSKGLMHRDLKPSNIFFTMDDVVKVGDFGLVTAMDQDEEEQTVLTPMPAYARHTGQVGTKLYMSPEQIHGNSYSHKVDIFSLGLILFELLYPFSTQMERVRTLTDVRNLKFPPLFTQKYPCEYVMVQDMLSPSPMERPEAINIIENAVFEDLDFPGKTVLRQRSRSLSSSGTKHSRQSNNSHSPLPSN
Chain of EIF2AK3 (PERK) catalytic domain (amino acids 536-1116) (Q9NZJ5 536-1116): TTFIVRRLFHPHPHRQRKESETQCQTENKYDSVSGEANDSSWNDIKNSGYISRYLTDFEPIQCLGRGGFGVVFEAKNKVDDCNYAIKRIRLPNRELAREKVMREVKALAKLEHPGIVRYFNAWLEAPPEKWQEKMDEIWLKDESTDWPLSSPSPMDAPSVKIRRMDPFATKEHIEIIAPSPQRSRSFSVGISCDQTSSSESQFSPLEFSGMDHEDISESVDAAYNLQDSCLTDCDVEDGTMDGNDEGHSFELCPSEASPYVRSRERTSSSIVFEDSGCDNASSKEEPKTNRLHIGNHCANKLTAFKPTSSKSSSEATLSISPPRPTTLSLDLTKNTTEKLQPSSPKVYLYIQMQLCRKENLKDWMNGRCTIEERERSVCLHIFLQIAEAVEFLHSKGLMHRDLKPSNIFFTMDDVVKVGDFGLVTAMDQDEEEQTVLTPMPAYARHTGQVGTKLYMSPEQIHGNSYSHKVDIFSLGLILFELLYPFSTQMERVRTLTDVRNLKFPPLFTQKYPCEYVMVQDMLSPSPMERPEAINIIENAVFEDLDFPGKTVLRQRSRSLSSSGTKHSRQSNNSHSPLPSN

A word on the IC50: it is the concentration that gives 50% inhibition. For the compound `Cc1c(-c2cnc(N)c(C(=O)NC3CC3)c2)ccc(NC(=O)C(O)c2cc(F)cc(F)c2)c1F` (stereo not drawn) [Example 120, 2-amino-N-cyclopropyl-5-(4-(2-(3,5-difluorophenyl)-2-hydroxyacetamido)-3-fluoro-2-methylphenyl) nicotinamide], the 50% inhibitory concentration (IC50) lay within 1 to 25 nM in test [1] and 0.051 to 0.1 µM at PERK.
For `Cc1c(-c2cnc(N)c(C(=O)NC3COC3)c2)ccc(NC(=O)C(O)c2cc(F)cc(F)c2)c1F` (stereo not drawn) [Example 121, 2-amino-5-(4-(2-(3,5-difluorophenyl)-2-hydroxyacetamido)-3-fluoro-2-methylphenyl)-N-(oxetan-3-yl)nicotinamide] the same measures were 1 to 25 nM and 0.001 to 0.025 µM.
For `Cc1c(-c2cnc(N)c(C(=O)NC3COC3)c2)ccc(NC(=O)C(O)c2cc(F)cc(F)c2)c1F` (stereo not drawn) [Example 122, 2-amino-5-(4-(2-(3,5-difluorophenyl)-2-hydroxyacetamido)-3-fluoro-2-methylphenyl)-N-(oxetan-3-yl)nicotinamide] the same measures were 251 to 500 nM and 0.501 to 1 µM.
As for `CC(C)NC(=O)c1cc(-c2ccc(NC(=O)C(O)c3cc(F)cc(F)c3)c(F)c2Cl)cnc1N` (stereo not drawn) [Example 123, 2-amino-5-(2-chloro-4-(2-(3,5-difluorophenyl)-2-hydroxyacetamido)-3-fluorophenyl)-N-isopropylnicotinamide], the IC50 is 1 to 25 nM in test [1] and 0.001 to 0.025 µM on PERK.
Turning to `CC(C)NC(=O)c1cc(-c2ccc(NC(=O)C(O)c3cc(F)cc(F)c3)c(F)c2Cl)cnc1N` (stereo not drawn) [Example 124, 2-amino-5-(2-chloro-4-(2-(3,5-diflouorophenyl)-2-hydroxyacetamido)-3-fluorophenyl)-N-isopropylnicotinamide], the IC50 in test [1] was 26 to 50 nM; on PERK it was 0.051 to 0.1 µM.
For `Cc1cc(NC(=O)C(O)c2cc(F)cc(F)c2)c(F)cc1-c1cnc(N)c(C(=O)NC(C)C)c1` (stereo not drawn) [Example 125, 2-amino-5-(4-(2-(3,5-difluorophenyl)-2-hydroxyacetamido)-5-fluoro-2-methylphenyl)-N-isopropylnicotinamide] the same measures were 101 to 250 nM and 0.501 to 1 µM.
`Cc1cc(NC(=O)C(O)c2cc(F)cc(F)c2)c(F)cc1-c1cnc(N)c(C(=O)NC(C)C)c1` (stereo not drawn) [Example 126, 2-amino-5-(4-(2-(3,5-difluorophenyl)-2-hydroxyacetamido)-5-fluoro-2-methylphenyl)-N-isopropylnicotinamide]: the IC50 was in the range of 1 to 25 nM in test [1] and 0.101 to 0.25 µM at PERK.
In the case of `Cc1cc(NC(=O)C(O)c2cccc(C(F)(F)F)c2)ncc1-c1cnc(N)c(C(=O)NC(C)C)c1` (stereo not drawn) [Example 127, 6-amino-6′-(2-hydroxy-2-(3-(trifluoromethyl)phenyl)acetamido)-N-isopropyl-4′-methyl-[3,3′-bipyridine]-5-carboxamide], the IC50 in test [1] is 251 to 500 nM; on PERK, over 5 µM.
Take `Cc1cc(NC(=O)C(O)c2cccc(C(F)(F)F)c2)ncc1-c1cnc(N)c(C(=O)NC(C)C)c1` (stereo not drawn) [Example 128, 6-amino-6′-(2-hydroxy-2-(3-(trifluoromethyl)phenyl)acetamido)-N-isopropyl-4′-methyl-[3,3′-bipyridine]-5-carboxamide]: the IC50 in test [1] was 51 to 100 nM; on PERK, over 5 µM.
Turning to `Cc1cc(NC(=O)C(O)c2cc(F)cc(F)c2)ccc1-c1cnc(N)c(C(=O)NC(C)C)n1` (stereo not drawn) [Example 133, 3-amino-6-(4-(2-(3,5-difluorophenyl)-2-hydroxyacetamido)-2-methylphenyl)-N-isopropylpyrazine-2 carboxamide], the IC50 in test [1] fell in the range of 51 to 100 nM; on PERK, 0.101 to 0.25 µM.
For `Cc1cc(NC(=O)C(O)c2cc(F)cc(F)c2)ccc1-c1cnc(N)c(C(=O)NC(C)C)n1` (stereo not drawn) [Example 134, 3-amino-6-(4-(2-(3,5-difluorophenyl)-2-hydroxyacetamido)-2-methylphenyl)-N-isopropylpyrazine-2-carboxamide] the same measures were 1 to 25 nM and 0.026 to 0.05 µM.
The matching figures for `CNC(=O)c1nc(-c2ccc(NC(=O)C(O)c3cc(F)cc(F)c3)cc2C)cnc1N` (stereo not drawn) [Example 135, 3-amino-6-(4-(2-(3,5-difluorophenyl)-2-hydroxyacetamido)-2-methylphenyl)-N-methylpyrazine-2-carboxamide]: 1 to 25 nM and 0.026 to 0.05 µM.
The matching figures for `Cc1cc(NC(=O)C(O)c2cc(F)cc(F)c2)ccc1-c1cnc(N)c(C(=O)NC2CC2)n1` (stereo not drawn) [Example 138, 3-amino-N-cyclopropyl-6-(4-(2-(3,5-difluorophenyl)-2-hydroxyacetamido)-2-methylphenyl) pyrazine-2-carboxamide]: 1 to 25 nM and 0.026 to 0.05 µM.
Turning to `Cc1cc(NC(=O)C(O)c2cc(F)cc(F)c2)ccc1-c1cnc(N)c(C(=O)NC2CC2)n1` (stereo not drawn) [Example 139, 3-amino-N-cyclopropyl-6-(4-(2-(3,5-difluorophenyl)-2-hydroxyacetamido)-2-methylphenyl) pyrazine-2-carboxamide], the IC50 was 1 to 25 nM in test [1] and 0.251 to 0.5 µM at PERK.
For the compound `Cc1cc(NC(=O)C(O)c2cc(F)cc(F)c2)ccc1-c1cnc(N)c(C(=O)NCCN(C)C)n1` (stereo not drawn) [Example 146, 3-amino-6-(4-(2-(3,5-difluorophenyl)-2-hydroxyacetamido)-2-methylphenyl)-N-(2-(dimethylamino)ethyl)pyrazine-2-carboxamide], the IC50 was 26 to 50 nM in test [1] and 0.101 to 0.25 µM at PERK.
In the case of `CCc1cc(NC(=O)C(O)c2cc(F)cc(F)c2)ccc1-c1cnc(N)c(C(=O)NC(C)C)n1` (stereo not drawn) [Example 151, 3-amino-6-(4-(2-(3,5-difluorophenyl)-2-hydroxyacetamido)-2-ethylphenyl)-N-isopropylpyrazine-2-carboxamide], the IC50 in test [1] lay in the range of 1 to 25 nM; at PERK it was 0.026 to 0.05 µM.
With `CCc1cc(NC(=O)C(O)c2cc(F)cc(F)c2)ccc1-c1cnc(N)c(C(=O)NC(C)C)n1` (stereo not drawn) [Example 152, 3-amino-6-(4-(2-(3,5-difluorophenyl)-2-hydroxyacetamido)-2-ethylphenyl)-N-isopropylpyrazine-2-carboxamide], the IC50 in test [1] was 101 to 250 nM; on PERK it was 0.101 to 0.25 µM.
On to `CCNC(=O)c1nc(-c2ccc(NC(=O)C(O)c3cc(F)cc(F)c3)cc2CC)cnc1N` (stereo not drawn) [Example 153, 3-amino-6-(4-(2-(3,5-difluorophenyl)-2-hydroxyactamido)-2-ethylphenyl)-N-ethylpyrazine-2-carboxamide], for which the IC50 in test [1] was in the range of 1 to 25 nM; on PERK, 0.026 to 0.05 µM.
On to `CCc1cc(NC(=O)C(O)c2cc(F)cc(F)c2)ccc1-c1cnc(N)c(C(=O)NC2CC2)n1` (stereo not drawn) [Example 156, 3-amino-N-cyclopropyl-6-(4-(2-(3,5-difluorophenyl)-2-hydroxyacetamido)-2-ethylphenyl)pyrazine-2-carboxamide], for which the IC50 in test [1] lay in the range of 1 to 25 nM; at PERK, 0.001 to 0.025 µM.
With `CCc1cc(NC(=O)C(O)c2cc(F)cc(F)c2)ccc1-c1cnc(N)c(C(=O)NC2CC2)n1` (stereo not drawn) [Example 157, 3-amino-N-cyclopropyl-6-(4-(2-(3,5-difluorophenyl)-2-hydroxyacetamido)-2-ethylphenyl) pyrazine-2-carboxamide], the IC50 in test [1] lay within 101 to 250 nM; on PERK, 0.101 to 0.25 µM.
For `CCc1cc(NC(=O)C(O)c2cc(F)cc(F)c2)ccc1-c1cnc(N)c(C(=O)NC2COC2)n1` (stereo not drawn) [Example 158, 3-amino-6-(4-(3-(3,5-difluorophenyl)-2-hydroxyacetamido)-2-ethylphenyl)-N-(oxetan-3-yl)pyrazine-2-carboxamide], the IC50 in test [1] lay within 1 to 25 nM; at PERK, 0.001 to 0.025 µM.
As for `CCc1cc(NC(=O)C(O)c2cc(F)cc(F)c2)ccc1-c1cnc(N)c(C(=O)NC2COC2)n1` (stereo not drawn) [Example 159, 3-amino-6-(4-(2-(3,5-difluorophenyl)-2-hydroxyacetamido)-2-ethylphenyl)-N-(oxetan-3-yl)pyrazine-2-carboxamide], the IC50 is 26 to 50 nM in test [1] and 0.101 to 0.25 µM on PERK.
Consider `CCc1cc(NC(=O)C(O)c2cccc(C)c2)ccc1-c1cnc(N)c(C(=O)NC(C)C)n1` (stereo not drawn) [Example 160, 3-amino-6-(2-ethyl-4-(2-hydroxy-2-(m-tolyl)acetamido)phenyl)-N-isopropylpyrazine-2-carboxamide], for which the IC50 in test [1] was 1 to 25 nM; at PERK, 0.001 to 0.025 µM.
The matching figures for `CCc1cc(NC(=O)C(O)c2cccc(C)c2)ccc1-c1cnc(N)c(C(=O)NC(C)C)n1` (stereo not drawn) [Example 161, 3-amino-6-(2-ethyl-4-(2-hydroxy-2-(m-tolyl)acetamido)phenyl)-N-isopropylpyrazine-2-carboxamide]: 51 to 100 nM and 0.251 to 0.5 µM.
For `Nc1ncc(-c2ccc(NC(=O)C(O)c3cc(F)cc(F)c3)cc2Cl)nc1C(=O)NCC(F)(F)F` (stereo not drawn) [Example 164, 3-amino-6-(2-chloro-4-(2-(3,5-difluorophenyl)-2-hydroxyacetamido)phenyl)-N-(2,2,2-trifluoroethyl) pyrazine-2-carboxamide] the same measures were 1000 to 2000 nM and 0.251 to 0.5 µM.
For `Nc1ncc(-c2ccc(NC(=O)C(O)c3cc(F)cc(F)c3)cc2Cl)nc1C(=O)NCC(F)(F)F` (stereo not drawn) [Example 165, 3-amino-6-(2-chloro-4-(2-(3,5-difluorophenyl)-2-hydroxyacetamido)phenyl)-N-(2,2,2-trifluoroethyl) pyrazine-2-carboxamide], the IC50 was 51 to 100 nM in test [1] and 0.026 to 0.05 µM on PERK.
For `Nc1ncc(-c2ccc(NC(=O)C(O)c3cc(F)cc(F)c3)cc2Cl)nc1C(=O)NC1COC1` (stereo not drawn) [Example 168, 3-amino-6-(2-chloro-4-(2-(3,5-difluorophenyl)-2-hydroxyacetamido)phenyl)-N-(oxetan-3-yl)pyrazine-2-carboxamide] the same measures were 51 to 100 nM and 0.101 to 0.25 µM.
